Values of other authors as cited in patent publication US6015805A, “17β-nitro-11β-arylisteroids and their derivatives having agonist or antagonist hormonal properties” (Research Triangle Research North Carolina, priority 1999, dated 2000).

Test system: glucocorticoid receptor
Settings: in words; cited from earlier work

## CC#C[C@]1(O)CC[C@H]2[C@@H]3CCC4=CC(=O)CCC4=C3[C@@H](c3ccc(N(C)C)cc3)C[C@@]21C [mifepristone]
  glucocorticoid or antiglucocorticoid activity as side-effect: significant side-effect
